Laboratory results from a melting point compilation (Tetko et al.; mined from patent text by program, amines drawn as free bases though some values may be those of a salt).

Row | SMILES | melting point
1 | NC[C@@H]1CCc2cc(S(=O)(=O)Nc3ccc(-n4ccn(CCCC5CCCCC5)c4=O)cc3)ccc2O1 | 108 to 110 °C
2 | Cc1cc(-n2nnc(-c3ccccc3)n2)sc1C(=O)NCc1ccccc1 | 155 to 158 °C
3 | Cc1ccc(Nc2c(N)cc(C(=O)O)cc2S(N)(=O)=O)cc1 | 249 to 252 °C
4 | O=C(CNC(=O)OCc1ccc([N+](=O)[O-])cc1)Nc1ccc(C(=O)OCCl)cc1 | 163 to 165 °C
5 | O=C(O)CCCCc1c([N+](=O)[O-])cc(O)c(O)c1[N+](=O)[O-] | 135 to 139 °C
6 | CCCCCCCCCCCCCCCCCCOc1cc(OCCCOc2ccc(S(C)(=O)=O)cc2)cc(C(=O)OC)c1 | 101 to 102 °C
7 | CC1=CC(O)C(OC(=O)C=Cc2ccccc2)C(C)(C)CC1=O (configuration not stated) | 85.5 to 87 °C
8 | O=C1CCC(=O)C(c2cccc(Cl)c2)N1 (configuration not stated) | 144 to 147 °C
9 | Cc1ccc(C(O)(c2ccc(C)cc2)[C@H](C)OS(C)(=O)=O)cc1 | 83 to 85 °C
10 | CCCCCCCCCCCCCCCCCCOc1cc(OCc2ccccc2)cc(N(CC(=O)OC)CC(=O)OC)c1 | 66 to 68 °C
11 | ClC1=NN(c2ccccc2)CC1 | 92 to 93 °C
12 | CCOc1sc(C)nc1S(=O)(=O)NC(=O)Nc1nc(OC)cc(OC)n1 | 140 to 143 °C
13 | Nc1nc(Cl)cc(NCC2(CO)COC2)n1 | 185 to 186 °C
14 | NS(=O)(=O)c1ccc(-c2oc3ccc(F)cc3c(=O)c2-c2ccccc2)cc1 | 228 to 229 °C
15 | O=C(OCC(CO)(CO)COC(=O)c1ccccc1)c1ccccc1 | 104 to 105 °C
16 | N#Cc1ccc(C(=O)N2C[C@H](OCc3ccccc3)C[C@H]2C(=O)O)cc1 | 58 to 60 °C
17 | N#CCOc1ccc2occ(CC#N)c2c1 | 86 to 87 °C
18 | CCOC(=O)Cn1c(=O)c(=O)[nH]c2cc(C(F)(F)F)c(-n3ccc(C=NO)c3)cc21 | > 250 °C
19 | COc1cc(C(=O)N2CCN(C(=O)OC(C)(C)C)C(C=O)C2)cc(OC)c1OC (configuration not stated) | 160 to 161 °C
20 | CC(C(=O)N1c2ccccc2N(C)C(=O)c2cnc(-c3ccccc3)nc21)N1CCNCC1 (configuration not stated) | 197 °C
21 | CCOC(=O)c1cnc2ccc(CC3CCOCC3)cc2c1O | 275 to 280 °C
22 | CCCCOc1c(CNC(=O)OC(C)(C)C)n(CC(C)C)c(=O)c2ccc(CO)cc12 | 153 to 154 °C
23 | CCc1cn(C[C@@H](C)O)c2ccc(F)cc12 | 65 to 67 °C
24 | Cc1ccccc1P(=O)(Cc1ccc2ccccc2c1-c1c(CP(=O)(c2ccccc2C)c2ccccc2C)ccc2ccccc12)c1ccccc1C | 231 to 234 °C
25 | CCNS(=O)(=O)c1ccc(-c2cnc3[nH]c(CCc4cc(OC)ccn4)nc3c2)cc1 | 214 to 216 °C

Row | SMILES | melting point
26 | Cn1nc(C(O)c2ccccn2)nc1NCCCOc1cccc(CN2CCCCC2)c1 (configuration not stated) | 152 to 154 °C
27 | NS(=O)(=O)c1cc(C(=O)O)cc(SCc2ccsc2)c1Oc1ccccc1 | 222 to 224 °C
28 | CCOC(=O)C1=C(C)NC(C)=C(C(=O)OC)C1c1cccc(C#N)c1 (configuration not stated) | 150 °C
29 | CCOCc1nc2c(N)nc3cc(-c4cccnc4)ccc3c2n1CC1CCCCN1S(C)(=O)=O (configuration not stated) | 152 to 154 °C
30 | CCOC(=O)c1cnc2n(c1=O)C(C)CCC2N(C)c1ccccc1 (configuration not stated) | 175 to 178 °C
31 | CC(Cn1ccnc1)Cn1cnc2ccc(Br)cc2c1=O (configuration not stated) | 159 to 162 °C
32 | Nc1ccc(Oc2ccc(Oc3ccc(Oc4ccc(Oc5ccc(N)cc5)cc4)cc3)cc2)cc1 | 170 °C
33 | CCOc1ccccc1OCC(O)CNC(C)=CC(=O)c1cccnc1 (single isomer, unassigned; (-)) | 94 °C
34 | O=C(NCCc1ccccn1)c1ccc2cc(C(=O)O)[nH]c2c1 | 198 to 199 °C
35 | O=[N+]([O-])c1ccc(Oc2ccc(C(c3ccc(Oc4ccc([N+](=O)[O-])c(O)c4)cc3)(C(F)(F)F)C(F)(F)F)cc2)cc1O | 148 to 151 °C
36 | O=C(Cn1c(-c2ccccc2)ncc(NC(=O)OCc2ccccc2)c1=O)NC(Cc1ccccc1)C(O)C(F)(F)F (configuration not stated) | 198 to 202 °C
37 | CC(c1cc(Cl)ccc1N1CCCCC1C)C(C(N)=O)c1ccc(C(=O)O)cc1 (configuration not stated) | 195 to 198 °C
38 | COc1ccc2c(Cl)cc(-c3ccc(Cl)cc3)nc2c1 | 153 to 155 °C
39 | COc1ccc(C(=O)c2c(F)cccc2F)c(Cl)c1Cl | 94 to 96 °C
40 | CNC(=O)c1cccc(NC(=O)Cc2ccc(Br)cc2)c1 | 165 to 166 °C
41 | CC(C)c1cc(-c2c3ccccc3c(Br)c3sc4ccccc4c23)cc(C(C)C)c1O | 189 to 190 °C
42 | COc1ccc(C2(c3ccc(-c4ccc(F)cc4)s3)N=C(N)N(C)C2=O)cc1C (configuration not stated) | 110 °C
43 | CCCc1nc(N)nc(N)c1N1CCN(c2ccc(C(=O)N[C@@H](CCC(=O)OCC)C(=O)OCC)cc2)CC1 | 175 to 180 °C
44 | Cc1nnsc1C(=O)Nc1ccc(-n2nc(C(F)(F)F)cc2C2CC2)c(F)c1 | 105 to 112 °C
45 | CNS(=O)(=O)c1cn(C)c2cc(Cl)ccc2c1=O | 220 to 223 °C
46 | Cc1cccc(C(=O)Nc2c(C(O)(C(F)(F)F)C(F)(F)F)ccc3ccccc23)c1 | 167 to 168 °C
47 | O=C(C(=NO)c1ccc(F)cc1)c1ccnc(F)c1 | 166 °C
48 | O=C(O)C1CC(=O)N(Cc2ccccc2)C1c1c(Cl)cccc1Cl (configuration not stated) | 179 to 181 °C
49 | CCOc1ccn([C@H]2CS[C@@H](CO)O2)c(=O)n1 (relative stereo) | 117 to 118 °C
50 | CCOC(=O)C=C(Nc1cn[nH]c1)C(=O)OCC | 69 to 71 °C

Row | SMILES | melting point
51 | CN(C)C=Cc1nc2ccc(F)cc2c(=O)n1-c1ccccc1Cl | 210 to 211 °C
52 | CCOCc1nc2c(N)nc3cccnc3c2n1CCCCN(OC)C(=O)NC(C)C | 146 to 147 °C
53 | COc1ccc(N2CCCn3c2nc2c(Cl)ccc(C(OCC(F)(F)F)C4CC4)c23)c(C)n1 (configuration not stated) | 158 to 160 °C
54 | CC(=O)SCSc1c[nH]nn1 | 88 to 89 °C
55 | CCSCc1cccc(-c2nc(=O)c3ccccc3s2)n1 | 142 to 144 °C
56 | O=C(c1ccc(C(F)(F)F)cc1)N1CCC(Cc2ccc(C3=NCCO3)cc2)CC1 | 115 °C
57 | CCCn1ncnc1COc1nc2c(cc1C(C)(C)C)nnn2-c1ccccc1F | 127 to 129 °C
58 | COc1ccc(-c2c(C(N)=O)c3n(c2Cl)CCN(C(=O)NC(C)(C)C)C3)cc1 | 168 to 170 °C
59 | CCc1cc(CNc2nc3ccccc3o2)c(=S)[nH]c1C | 238 to 240 °C
60 | CC1(C)[C@@H](C=C(c2ccccc2)c2ccccc2)[C@@H]1C(=O)O (relative stereo) | 115 °C
61 | Nc1ccc(CCC(=O)Nc2ccc(C(=O)c3ccccc3)cc2)cc1[N+](=O)[O-] | 72 to 73 °C
62 | CCCCCCCN(CCN1CCN(CCSc2nc3c(C)c(Cl)cc(C(C)C)c3o2)CC1)C(=O)Nc1c(C(C)C)cc(O)cc1C(C)C | 138 to 140 °C
63 | c1ccc(-c2ncc(-c3nnn[nH]3)cn2)cc1 | 237 °C
64 | Cn1cc(O)c(=O)c2ccccc21 | 235 to 240 °C
65 | Cc1ccc(-c2c(F)c(F)c3c(=O)c(C(=O)O)cn(C4CC4)c3c2F)c(C)n1 | 264 to 266 °C
66 | CCCCOC(=O)C(=O)c1cc(-c2ccc(S(C)(=O)=O)cc2)n(-c2ccccc2)c1C | 100 °C
67 | O=C(NC(CO)(CO)CO)c1ccc(C(=O)NC(CO)(CO)CO)cc1 | 188 to 190 °C
68 | COc1cc2oc(=O)c3c(c2cc1N)CCN(CC(C)=O)C3 | 178 to 180 °C
69 | Cc1ccc(-c2[nH]nc3c2Cc2ccccc2-3)cc1 | 250 to 252 °C
70 | COC(=O)c1ccc2oc(-c3ccccc3O)cc(=O)c2c1 | 290 to 291 °C
71 | O=C(O)c1nc2c(=O)[nH]c3cc(C(F)(F)F)ccc3n2c1CBr | > 250 °C
72 | CCOC(=O)C1=C[C@@H](OC(CC)CC)[C@H](NC(C)=O)[C@H](O)C1 | 129 to 131 °C
73 | O=C(c1sc2c(ccc(=O)n2-c2ccccc2)c1Br)N1CC(O)C1 | 199 °C
74 | CC1=NCCN1Cc1ccc(CCNC(=O)c2ccc(-c3ccc(Cl)cc3)cc2)cc1 | 170 to 172 °C
75 | CCC(Cc1ccc(OC)c(OCCc2ccc(C(F)(F)F)cc2)c1)C(=O)O (configuration not stated) | 64 to 66 °C

Row | SMILES | melting point
76 | CC(C)CCOc1c(-c2ccc(S(N)(=O)=O)cc2)cnn(C(C)(C)C)c1=O | 153 to 155 °C
77 | C=CCOc1ccc(C(=O)c2ccnn2C)c(Cl)c1Cl | 118 to 119 °C
78 | O=C(CCC(O)c1ccccc1)NC1CCCCC1 (configuration not stated) | 91 to 93 °C
79 | O=C(C=Cc1ccncc1)c1ccc([N+](=O)[O-])cc1 | 218 to 221 °C
80 | O=C(C=Cc1ccncc1)c1cccc(C(F)(F)F)c1 | 89 to 90 °C
81 | Cc1ccn2c(-c3ccnc(-c4ccc(N5CCOCC5)cc4)c3)c(-c3cccc(C)n3)nc2c1 | 208 °C
82 | OCc1cc(-c2ccccc2)no1 | 48 to 50 °C
83 | O=C(c1ccc(-c2ccccc2)cc1)c1ccc([N+](=O)[O-])cc1 | 174 to 176 °C
84 | [N-]=[N+]=Nc1nc(N=[N+]=[N-])c2ncn(COC(CO)CO)c2n1 | 174 to 180 °C
85 | O=C(NC1C(O)=COC2=C1SC([N+](=O)[O-])C2)c1ccc(C(F)(F)F)cc1 (configuration not stated) | 219 to 220 °C
86 | COc1c(CN2C(=O)c3ccccc3C2=O)n(C)c(=O)c2ccc(Cl)cc12 | 248 to 249 °C
87 | NC(=O)c1ccc(N2CCN(Cc3cn4cc(Br)ccc4n3)CC2)cc1 | 238 to 239 °C
88 | Cc1cc2nc(Cl)c(Cl)nc2c(N)c1C | 178 to 180 °C
89 | Cc1ccc(Cc2c(C(F)(F)F)[nH][nH]c2=O)cc1 | 150 to 152 °C
90 | O=C(O)c1cn(-c2ccc(SC(F)(F)F)cc2)cn1 | 247 to 248 °C
91 | Clc1cc(CC2(Cc3ccnc(Cl)c3)c3ccccc3-c3ncccc32)ccn1 | 188 to 190 °C
92 | CC(O)(CCN1CCOCC1)c1ccc(-c2ccc(Cl)cc2)cc1 (configuration not stated) | 106 to 108 °C
93 | CNC1=C([N+](=O)[O-])C(=O)NC1=Cc1ccccc1 | 238 °C
94 | O=C1NC(=O)C(C2C3CCCC32)O1 (configuration not stated) | 135 to 141 °C
95 | OCc1cccnc1Oc1ccc(F)cc1 | 70 to 72 °C
96 | Cc1cc(OC(F)F)ccc1NC(=O)c1cccc(I)c1C(=O)NC(C)C | 207 to 209 °C
97 | COC(=O)c1c(N)ccc([N+](=O)[O-])c1C | 92 to 94 °C
